# Molecular target: T1, Human-recombinant-S-Adenosyl-L-Homocysteine Hydrolase (Homo sapiens, UniProt P23526)
# T1 construct: purchased Diazyme Laboratories
# Assay: Measurement of enzyme inhibitory activity (hydrolysis of S-Adenosyl-L-Homocysteine, HPLC)
# Format: biochemical
# Conditions: S-Adenosyl-L-Homocysteine 10 μM, pH 7.2, 37° C., 15 min
# Procedure: The enzyme inhibitory activity of the compounds of the Examples was measured using the hydrolysis activity of S-Adenosyl-L-Homocysteine as an index. The measurement method was modification of the method of Henry H. Richards et al. (J. Biol. Chem. 253, 4476-4480, 1978). That is, S-Adenosyl-L-Homocysteine (10 μM) and Adenosine Deaminase (Roche) (4 units) were added to 50 mM phosphate buffer (pH 7.2, containing 1 mM EDTA) with the total amount being 200 μl, and to the solution were added a test substance and then Human-recombinant-S-Adenosyl-L-Homocysteine Hydrolase (50 ng, Diazyme Laboratories) to start the reaction, and the mixture was incubated at 37° C. for 15 min. The reaction was quenched by the addition of 1N aqueous perchloric solution (20 μl), and the mixture was centrifuged under the conditions of 10000 rpm, 5 min, 4° C. The supernatant was collected, and the amount of S-Adenosyl-L-Homocysteine after the reaction was quantified by HPLC. The column used was a reversed-phase column. The detailed conditions of HPLC were as follows.
# column used: Wakopak^R HandyODS 150*4.6 mm (Wako Pure Chemical Industries, Ltd.) elution condition: 1.0 ml/min elution solvent: 0.1M acetate buffer (pH 4.0) containing 10 mM 1-heptanesulfonic acid containing 4% acetonitrile wavelength: 258 nm (UV) The inhibitory rate was determined with the amount of decrease in S-Adenosyl-L-Homocysteine before and after the reaction without using the test substance as 100%.
# Inhibitory rate (%)={(amount of decrease of S-Adenosyl-L-Homocysteine in the presence of test substance)/(amount of decrease of S-Adenosyl-L-Homocysteine in the absence of test substance)}×100
# T1 sequence (P23526 whole entry): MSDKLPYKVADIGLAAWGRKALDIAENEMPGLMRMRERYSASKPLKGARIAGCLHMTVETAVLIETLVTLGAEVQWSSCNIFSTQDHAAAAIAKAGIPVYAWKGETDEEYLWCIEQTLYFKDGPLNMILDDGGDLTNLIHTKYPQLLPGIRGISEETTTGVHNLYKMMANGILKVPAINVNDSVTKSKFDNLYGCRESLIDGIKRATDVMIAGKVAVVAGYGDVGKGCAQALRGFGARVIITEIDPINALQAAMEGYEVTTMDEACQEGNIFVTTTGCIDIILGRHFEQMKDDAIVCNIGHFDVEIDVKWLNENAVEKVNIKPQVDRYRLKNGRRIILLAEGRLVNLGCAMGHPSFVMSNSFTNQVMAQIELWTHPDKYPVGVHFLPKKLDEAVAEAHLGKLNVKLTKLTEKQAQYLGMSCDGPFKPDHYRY
row,SMILES,IC50 [µM]
1,"Cc1nc(-c2ccc(C)c(N(CC(=O)NCCNC(C)C)CC(=O)N(C)N3Cc4ccccc4C3)c2)no1 [Example 15, N^2-{2-[1,3-dihydro-2H-isoindol-2-yl(methyl)amino]-2-oxoethyl}-N^2-[2-methyl-5-(5-methyl-1,2,4-oxadiazol-3-yl)phenyl]-N^1-[2-(isopropylamino)ethyl]glycinamide]",0.017
2,"CCNCCNC(=O)CN(CC(=O)N(C)N1Cc2ccccc2C1)c1cc(-c2noc(C)n2)ccc1C [Example 16, N^2-{2-[1,3-dihydro-2H-isoindol-2-yl(methyl)amino]-2-oxoethyl}-N^2-[2-methyl-5-(5-methyl-1,2,4-oxadiazol-3-yl)phenyl]-N^1-[2-(ethylamino)ethyl]glycinamide]",0.019
3,"CCNCCNC(=O)CN(CC(=O)N(C)N1Cc2cccc(F)c2C1)c1cc(-c2noc(C)n2)ccc1C [Example 19, N^2-{2-[(4-fluoro-1,3-dihydro-2H-isoindol-2-yl)(methyl)amino]-2-oxoethyl}-N^2-[2-methyl-5-(5-methyl-1,2,4-oxadiazol-3-yl)phenyl]-N^1-[2-(ethylamino)ethyl]glycinamide]",0.033
4,"CCNCCNC(=O)CN(CC(=O)N(C)C1Cc2ccccc2C1)c1cc(-c2noc(C)n2)ccc1C [Example 26, N^2-{2-[2,3-dihydro-1H-inden-2-yl(methyl)amino]-2-oxoethyl}-N^2-[2-methyl-5-(5-methyl-1,2,4-oxadiazol-3-yl)phenyl]-N^1-[2-(ethylamino)ethyl]glycinamide]",0.056
5,"CC(=O)c1ccc(C)c(N(CC(=O)NCCNC(C)C)CC(=O)N(C)N2Cc3ccccc3C2)c1 [Example 56, N^2-(5-acetyl-2-methylphenyl)-N^2-{2-[1,3-dihydro-2H-isoindol-2-yl(methyl)amino]-2-oxoethyl}-N^1-[2-(isopropylamino)ethyl]glycinamide]",0.052
6,"CCNCCNC(=O)CN(CC(=O)N(C)N1Cc2ccccc2C1)c1cc(C(C)=O)ccc1C [Example 57, N^2-(5-acetyl-2-methylphenyl)-N^2-{2-[1,3-dihydro-2H-isoindol-2-yl(methyl)amino]-2-oxoethyl}-N^1-[2-(ethylamino)ethyl]glycinamide]",0.042
7,"Cc1noc(-c2ccc(C)c(N(CC(=O)NCCNC(C)C)CC(=O)N(C)N3Cc4ccccc4C3)c2)n1 [Example 84, N^2-{2-[1,3-dihydro-2H-isoindol-2-yl(methyl)amino]-2-oxoethyl}-N^2-[2-methyl-5-(3-methyl-1,2,4-oxadiazol-5-yl)phenyl]-N^1-[2-(isopropylamino)ethyl]glycinamide]",0.034
8,"CCNCCNC(=O)CN(CC(=O)N(C)N1Cc2ccccc2C1)c1cc(-c2nc(C)no2)ccc1C [Example 85, N^2-{2-[1,3-dihydro-2H-isoindol-2-yl(methyl)amino]-2-oxoethyl}-N^2-[2-methyl-5-(3-methyl-1,2,4-oxadiazol-5-yl)phenyl]-N^1-[2-(ethylamino)ethyl]glycinamide]",0.017
9,"CCNCCNC(=O)CN(CC(=O)N(C)N1Cc2ccc(F)cc2C1)c1cc(-c2nc(C)no2)ccc1C [Example 87, N^2-{2-[(5-fluoro-1,3-dihydro-2H-isoindol-2-yl)(methyl)amino]-2-oxoethyl}-N^2-[2-methyl-5-(3-methyl-1,2,4-oxadiazol-5-yl)phenyl]-N^1-[2-(ethylamino)ethyl]glycinamide]",0.018
10,"CCNCCNC(=O)CN(CC(=O)N(C)N1Cc2ccccc2C1)c1cc(-c2ncccn2)ccc1C [Example 129, N^2-{2-[1,3-dihydro-2H-isoindol-2-yl(methyl)amino]-2-oxoethyl}-N^2-(2-methyl-5-pyrimidin-2-ylphenyl)-N^1-[2-(ethylamino)ethyl]glycinamide]",0.01
11,"CCNCCNC(=O)CN(CC(=O)N(C)N1Cc2ccccc2C1)c1cc2c(cc1C)N(CC)C(=O)CC2 [Example 177, N^2-{2-[1,3-dihydro-2H-isoindol-2-yl(methyl)amino]-2-oxoethyl}-N^2-(1-ethyl-7-methyl-2-oxo-1,2,3,4-tetrahydroquinolin-6-yl)-N^1-[2-(ethylamino)ethyl]glycinamide]",0.046

# Second part, the compound after the results:
row,IC50 [µM],SMILES
1,0.015,"Cc1cc2onc(C)c2cc1N(CC(=O)NCCNC(C)C)CC(=O)N(C)N1Cc2ccccc2C1 [Example 180, N^2-{2-[1,3-dihydro-2H-isoindol-2-yl(methyl)amino]-2-oxoethyl}-N^2-(3,6-dimethyl-1,2-benzisoxazol-5-yl)-N^1-[2-(isopropylamino)ethyl]glycinamide]"
2,0.016,"CCNCCNC(=O)CN(CC(=O)N(C)N1Cc2ccccc2C1)c1cc2c(C)noc2cc1C [Example 181, N^2-{2-[1,3-dihydro-2H-isoindol-2-yl(methyl)amino]-2-oxoethyl}-N^2-(3,6-dimethyl-1,2-benzisoxazol-5-yl)-N^1-[2-(ethylamino)ethyl]glycinamide]"
3,0.088,"Cc1cc2oc(=O)n(C)c2cc1N(CC(=O)NCCNC(C)C)CC(=O)N(C)N1Cc2ccccc2C1 [Example 190, N^2-{2-[1,3-dihydro-2H-isoindol-2-yl(methyl)amino]-2-oxoethyl}-N^2-(3,6-dimethyl-1,3-benzoxazol-2(3H)-on-5-yl)-N^1-[2-(isopropylamino)ethyl]glycinamide]"
4,0.051,"CCNCCNC(=O)CN(CC(=O)N(C)N1Cc2ccccc2C1)c1cc2c(cc1C)oc(=O)n2C [Example 191, N^2-{2-[1,3-dihydro-2H-isoindol-2-yl(methyl)amino]-2-oxoethyl}-N^2-(3,6-dimethyl-1,3-benzoxazol-2(3H)-on-5-yl)-N^1-[2-(ethylamino)ethyl]glycinamide]"
5,0.046,"Cc1cc2c(cc1N(CC(=O)NCCNC(C)C)CC(=O)N(C)N1Cc3ccccc3C1)oc(=O)n2C [Example 192, N^2-{2-[1,3-dihydro-2H-isoindol-2-yl(methyl)amino]-2-oxoethyl}-N^2-(3,5-dimethyl-1,3-benzoxazol-2(3H)-on-6-yl)-N^1-[2-(isopropylamino)ethyl]glycinamide]"
6,0.029,"CCNCCNC(=O)CN(CC(=O)N(C)N1Cc2ccccc2C1)c1cc2oc(=O)n(C)c2cc1C [Example 193, N^2-{2-[1,3-dihydro-2H-isoindol-2-yl(methyl)amino]-2-oxoethyl}-N^2-(3,5-dimethyl-1,3-benzoxazol-2(3H)-on-6-yl)-N^1-[2-(ethylamino)ethyl]glycinamide]"
7,0.065,"CCNCCNC(=O)CN(CC(=O)N(C)N1Cc2ccc(F)cc2C1)c1ccc(-c2noc(C)n2)cc1C [Example 204, N^2-{2-[(5-fluoro-1,3-dihydro-2H-isoindol-2-yl)(methyl)amino]-2-oxoethyl}-N^2-[2-methyl-4-(5-methyl-1,2,4-oxadiazol-3-yl)phenyl]-N^1-[2-(ethylamino)ethyl]glycinamide]"
8,0.048,"CCNCCNC(=O)CN(CC(=O)N(C)N1Cc2cccc(F)c2C1)c1ccc(-c2noc(C)n2)cc1C [Example 205, N^2-{2-[(4-fluoro-1,3-dihydro-2H-isoindol-2-yl)(methyl)amino]-2-oxoethyl}-N^2-[2-methyl-4-(5-methyl-1,2,4-oxadiazol-3-yl)phenyl]-N^1-[2-(ethylamino)ethyl]glycinamide]"
9,0.034,"CCNCCNC(=O)CN(CC(=O)N(C)N1Cc2ccccc2C1)c1ccc(C(C)=O)cc1C [Example 210, N^2-(4-acetyl-2-methylphenyl)-N^2-{2-[1,3-dihydro-2H-isoindol-2-yl(methyl)amino]-2-oxoethyl}-N^1-[2-(ethylamino)ethyl]glycinamide]"
10,0.051,"CCNCCNC(=O)CN(CC(=O)N(C)N1Cc2ccc(F)cc2C1)c1ccc(C(C)=O)cc1C [Example 211, N^2-(4-acetyl-2-methylphenyl)-N^2-{2-[(5-fluoro-1,3-dihydro-2H-isoindol-2-yl)(methyl)amino]-2-oxoethyl}-N^1-[2-(ethylamino)ethyl]glycinamide]"
11,0.023,"CCNCCNC(=O)CN(CC(=O)N(C)N1Cc2ccccc2C1)c1cc2c(cc1C)CCC2=O [Example 214, N^2-{2-[1,3-dihydro-2H-isoindol-2-yl(methyl)amino]-2-oxoethyl}-N^2-(6-methyl-3-oxo-2,3-dihydro-1H-inden-5-yl)-N^1-[2-(ethylamino)ethyl]glycinamide]"
12,0.033,"CCNCCNC(=O)CN(CC(=O)N(C)N1Cc2cccc(F)c2C1)c1cc2c(cc1C)CCC2=O [Example 216, N^2-{2-[(4-fluoro-1,3-dihydro-2H-isoindol-2-yl)(methyl)amino]-2-oxoethyl}-N^2-(6-methyl-3-oxo-2,3-dihydro-1H-inden-5-yl)-N^1-[2-(ethylamino)ethyl]glycinamide]"
13,0.046,"CCNCCNC(=O)CN(CC(=O)N(C)N1Cc2ccc(F)cc2C1)c1ccc(-c2nc(C)no2)cc1C [Example 231, N^2-{2-[(5-fluoro-1,3-dihydro-2H-isoindol-2-yl)(methyl)amino]-2-oxoethyl}-N^2-[2-methyl-4-(3-methyl-1,2,4-oxadiazol-5-yl)phenyl]-N^1-[2-(ethylamino)ethyl]glycinamide]"

# Source: US20120196824A1, “THERAPEUTIC AGENT FOR CEREBRAL INFARCTION” (MITSUBISHI TANABE PHARMA CORPORATION, priority 2009, published 2012)
